Laboratory results published in ChEMBL document CHEMBL1201862, “PubChem BioAssay data set” (2004).
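Following 48 hours of exposure in 96-well plates, responses at five concentrations were used to interpolate endpoints linearly. GI50 marks 50% less growth.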 The source made the active and inactive calls. Cut-off read from the data, not from the text of the source: active = GI50 up to about 1.1 µM and inactive = higher.

What was measured:
Test in all cases: growth of human tumour cells (NCI), 48 h
ACHN = tested on: ACHN
CAKI-1 = tested on: CAKI-1
COLO 205 = tested on: COLO 205
DU-145 = tested on: DU-145
EKVX = tested on: EKVX
HL-60 = tested on: HL-60
Hs-578T = tested on: Hs-578T
IGROV-1 = tested on: IGROV-1
M14 = tested on: M14
MCF7 = tested on: MCF7
MDA-MB-435 = tested on: MDA-MB-435
NCI-H522 = tested on: NCI-H522
PC-3 = tested on: PC-3
SF-268 = tested on: SF-268
SF-295 = tested on: SF-295
SK-MEL-5 = tested on: SK-MEL-5
SNB-19 = tested on: SNB-19
SNB-75 = tested on: SNB-75
T47D = tested on: T47D
UACC-62 = tested on: UACC-62

CCOC(=O)c1c(O)nc2cccc3c2c1-c1cccnc1S3
GI50 (ACHN): 28.8 µM (inactive) | GI50 (CAKI-1): 16.7 µM (inactive) | GI50 (COLO 205): 35.9 µM (inactive) | GI50 (DU-145): 44.6 µM (inactive) | GI50 (EKVX): 30.3 µM (inactive) | GI50 (HL-60): 20.3 µM (inactive) | GI50 (Hs-578T): 22.4 µM (inactive) | GI50 (IGROV-1): 16.9 µM (inactive) | GI50 (M14): 32.7 µM (inactive) | GI50 (MCF7): 1.14 µM (inactive) | GI50 (MDA-MB-435): 28.8 µM (inactive) | GI50 (NCI-H522): 25.8 µM (inactive) | GI50 (PC-3): 15.8 µM (inactive) | GI50 (SF-268): 28.8 µM (inactive) | GI50 (SF-295): 23.7 µM (inactive) | GI50 (SK-MEL-5): 11.7 µM (inactive) | GI50 (SNB-19): 33.8 µM (inactive) | GI50 (SNB-75): 21.2 µM (inactive) | GI50 (T47D): 9.86 µM (inactive) | GI50 (UACC-62): 16.3 µM (inactive)

COc1ccccc1C1C2=C(COC2=O)OC(C)(C)Oc2cc3c(cc21)OCO3 (stereo not given)
GI50 (ACHN): 7.91 µM (inactive) | GI50 (CAKI-1): 3.33 µM (inactive) | GI50 (COLO 205): 1.04 µM (active) | GI50 (DU-145): 3.57 µM (inactive) | GI50 (EKVX): 3.56 µM (inactive) | GI50 (HL-60): 1.35 µM (inactive) | GI50 (Hs-578T): 4.6 µM (inactive) | GI50 (IGROV-1): 5.35 µM (inactive) | GI50 (M14): 3.18 µM (inactive) | GI50 (MCF7): 3.15 µM (inactive) | GI50 (MDA-MB-435): 0.564 µM (active) | GI50 (NCI-H522): 1.99 µM (inactive) | GI50 (PC-3): 2.19 µM (inactive) | GI50 (SF-268): 7.4 µM (inactive) | GI50 (SF-295): 2.67 µM (inactive) | GI50 (SK-MEL-5): 3.36 µM (inactive) | GI50 (SNB-19): 3.8 µM (inactive) | GI50 (SNB-75): 3.59 µM (inactive) | GI50 (T47D): 5.93 µM (inactive) | GI50 (UACC-62): 3.37 µM (inactive)

CN1CCc2c(sc3ncn(Nc4ccc(Cl)cc4)c(=N)c23)C1
GI50 (ACHN): > 100 µM (inactive) | GI50 (CAKI-1): > 100 µM (inactive) | GI50 (COLO 205): > 100 µM (inactive) | GI50 (DU-145): > 100 µM (inactive) | GI50 (EKVX): > 100 µM (inactive) | GI50 (HL-60): > 100 µM (inactive) | GI50 (Hs-578T): > 100 µM (inactive) | GI50 (IGROV-1): > 100 µM (inactive) | GI50 (M14): > 100 µM (inactive) | GI50 (MCF7): > 100 µM (inactive) | GI50 (MDA-MB-435): > 100 µM (inactive) | GI50 (NCI-H522): > 100 µM (inactive) | GI50 (PC-3): > 100 µM (inactive) | GI50 (SF-268): > 100 µM (inactive) | GI50 (SF-295): > 100 µM (inactive) | GI50 (SK-MEL-5): > 100 µM (inactive) | GI50 (SNB-19): > 100 µM (inactive) | GI50 (SNB-75): > 100 µM (inactive) | GI50 (T47D): > 100 µM (inactive) | GI50 (UACC-62): > 100 µM (inactive)

CCN(CC)CCCNc1ccc([N+](=O)[O-])c2nc3ccc(OC)cc3c(N)c12
GI50 (ACHN): > 6.67 µM (inactive) | GI50 (CAKI-1): > 10 µM (inactive) | GI50 (COLO 205): 1.34 µM (inactive) | GI50 (DU-145): 3.21 µM (inactive) | GI50 (EKVX): > 10 µM (inactive) | GI50 (HL-60): 1.94 µM (inactive) | GI50 (Hs-578T): 1.2 µM (inactive) | GI50 (IGROV-1): 2.58 µM (inactive) | GI50 (M14): > 4.41 µM (inactive) | GI50 (MCF7): > 4.37 µM (inactive) | GI50 (MDA-MB-435): 1.62 µM (inactive) | GI50 (NCI-H522): 2.82 µM (inactive) | GI50 (PC-3): 1.75 µM (inactive) | GI50 (SF-268): 1.71 µM (inactive) | GI50 (SF-295): 1.82 µM (inactive) | GI50 (SK-MEL-5): > 5.16 µM (inactive) | GI50 (SNB-19): > 4.34 µM (inactive) | GI50 (SNB-75): 1.93 µM (inactive) | GI50 (T47D): > 10 µM (inactive) | GI50 (UACC-62): > 10 µM (inactive)

C=C1C(=O)OC2/C=C(/C)C(OC(C)=O)C/C=C(\C)C(OC(=O)C3(C)OC3C)C(O)C12 (stereo not given)
GI50 (ACHN): > 100 µM (inactive) | GI50 (CAKI-1): 65.8 µM (inactive) | GI50 (COLO 205): 55.7 µM (inactive) | GI50 (DU-145): > 100 µM (inactive) | GI50 (EKVX): > 100 µM (inactive) | GI50 (HL-60): 30.3 µM (inactive) | GI50 (Hs-578T): > 100 µM (inactive) | GI50 (IGROV-1): > 100 µM (inactive) | GI50 (M14): > 100 µM (inactive) | GI50 (MCF7): 51.1 µM (inactive) | GI50 (MDA-MB-435): > 100 µM (inactive) | GI50 (NCI-H522): 14.9 µM (inactive) | GI50 (PC-3): > 100 µM (inactive) | GI50 (SF-268): > 100 µM (inactive) | GI50 (SF-295): > 100 µM (inactive) | GI50 (SK-MEL-5): > 100 µM (inactive) | GI50 (SNB-19): > 100 µM (inactive) | GI50 (SNB-75): 97.7 µM (inactive) | GI50 (T47D): > 100 µM (inactive) | GI50 (UACC-62): > 100 µM (inactive)

COc1ccc2c(c1)-c1nc(=O)n(CCCN(C)C)c3ccc([N+](=O)[O-])c(c13)N2
GI50 (ACHN): 0.485 µM (active) | GI50 (CAKI-1): 0.434 µM (active) | GI50 (COLO 205): 0.752 µM (active) | GI50 (DU-145): 0.776 µM (active) | GI50 (EKVX): 0.711 µM (active) | GI50 (HL-60): 1.86 µM (inactive) | GI50 (Hs-578T): 1.56 µM (inactive) | GI50 (IGROV-1): 0.413 µM (active) | GI50 (M14): 1.08 µM (active) | GI50 (MCF7): 0.448 µM (active) | GI50 (MDA-MB-435): 2.6 µM (inactive) | GI50 (NCI-H522): 0.368 µM (active) | GI50 (PC-3): 0.792 µM (active) | GI50 (SF-268): 0.789 µM (active) | GI50 (SF-295): 0.791 µM (active) | GI50 (SK-MEL-5): 0.875 µM (active) | GI50 (SNB-19): 2.5 µM (inactive) | GI50 (SNB-75): 1.28 µM (inactive) | GI50 (T47D): 15.5 µM (inactive) | GI50 (UACC-62): 8.87 µM (inactive)

Cc1cc2c(cc1C)[n+]([O-])c(N1CCN(c3ccc([N+](=O)[O-])cc3)CC1)c(C#N)[n+]2[O-]
GI50 (ACHN): 15.3 µM (inactive) | GI50 (CAKI-1): 83 µM (inactive) | GI50 (COLO 205): > 100 µM (inactive) | GI50 (DU-145): 32.8 µM (inactive) | GI50 (EKVX): 26 µM (inactive) | GI50 (HL-60): > 100 µM (inactive) | GI50 (Hs-578T): 34.6 µM (inactive) | GI50 (IGROV-1): 25.3 µM (inactive) | GI50 (M14): 35.9 µM (inactive) | GI50 (MCF7): 28.6 µM (inactive) | GI50 (MDA-MB-435): > 100 µM (inactive) | GI50 (NCI-H522): 26.2 µM (inactive) | GI50 (PC-3): 32.3 µM (inactive) | GI50 (SF-268): 41.7 µM (inactive) | GI50 (SF-295): 15.2 µM (inactive) | GI50 (SK-MEL-5): 75.7 µM (inactive) | GI50 (SNB-19): 18 µM (inactive) | GI50 (SNB-75): 4.61 µM (inactive) | GI50 (T47D): 16.3 µM (inactive) | GI50 (UACC-62): 20.3 µM (inactive)

Cc1cc(N(CCC#N)CCC#N)ccc1C(/N=N/c1ccccc1)=N\NC(=O)c1cc(Cl)ccc1O
GI50 (ACHN): 15.8 µM (inactive) | GI50 (CAKI-1): 46.8 µM (inactive) | GI50 (COLO 205): 19.7 µM (inactive) | GI50 (DU-145): 27.5 µM (inactive) | GI50 (EKVX): 30.5 µM (inactive) | GI50 (HL-60): 37.9 µM (inactive) | GI50 (Hs-578T): 23.8 µM (inactive) | GI50 (IGROV-1): 26.2 µM (inactive) | GI50 (M14): 26.4 µM (inactive) | GI50 (MCF7): 11.7 µM (inactive) | GI50 (MDA-MB-435): 36.4 µM (inactive) | GI50 (NCI-H522): 13.6 µM (inactive) | GI50 (PC-3): 23.5 µM (inactive) | GI50 (SF-268): 30.1 µM (inactive) | GI50 (SF-295): 18.5 µM (inactive) | GI50 (SK-MEL-5): 21.5 µM (inactive) | GI50 (SNB-19): 49 µM (inactive) | GI50 (SNB-75): 77.6 µM (inactive) | GI50 (T47D): 11.4 µM (inactive) | GI50 (UACC-62): 7.71 µM (inactive)

O=C(CC(O)(C(F)(F)F)C(F)(F)F)c1cc(CC(=O)C(O)(C(F)(F)F)C(F)(F)F)cc(CC(=O)C(O)(C(F)(F)F)C(F)(F)F)c1
GI50 (ACHN): 0.802 µM (active) | GI50 (CAKI-1): 1.75 µM (inactive) | GI50 (COLO 205): 1.61 µM (inactive) | GI50 (DU-145): 1.97 µM (inactive) | GI50 (EKVX): 2.24 µM (inactive) | GI50 (HL-60): > 10 µM (inactive) | GI50 (Hs-578T): 2.05 µM (inactive) | GI50 (IGROV-1): 1.65 µM (inactive) | GI50 (M14): 2.58 µM (inactive) | GI50 (MCF7): 1.86 µM (inactive) | GI50 (MDA-MB-435): 1 µM (active) | GI50 (NCI-H522): 1.14 µM (inactive) | GI50 (PC-3): 0.78 µM (active) | GI50 (SF-268): 2.67 µM (inactive) | GI50 (SF-295): 1.05 µM (active) | GI50 (SK-MEL-5): 1.57 µM (inactive) | GI50 (SNB-19): 2.67 µM (inactive) | GI50 (SNB-75): 1.91 µM (inactive) | GI50 (T47D): 0.419 µM (active) | GI50 (UACC-62): 1.11 µM (active)

O=C(/C=C/c1ccc(Cl)cc1)c1ccccc(=O)c1O
GI50 (ACHN): 0.881 µM (active) | GI50 (CAKI-1): 0.614 µM (active) | GI50 (COLO 205): 1.23 µM (inactive) | GI50 (DU-145): 2.61 µM (inactive) | GI50 (EKVX): 1.93 µM (inactive) | GI50 (HL-60): 0.516 µM (active) | GI50 (Hs-578T): 4.99 µM (inactive) | GI50 (IGROV-1): 1.82 µM (inactive) | GI50 (M14): 2.87 µM (inactive) | GI50 (MCF7): 2.43 µM (inactive) | GI50 (MDA-MB-435): 0.977 µM (active) | GI50 (NCI-H522): 5.42 µM (inactive) | GI50 (PC-3): 4.08 µM (inactive) | GI50 (SF-268): 3.12 µM (inactive) | GI50 (SF-295): 1.22 µM (inactive) | GI50 (SK-MEL-5): 0.621 µM (active) | GI50 (SNB-19): 2.72 µM (inactive) | GI50 (SNB-75): 2.86 µM (inactive) | GI50 (T47D): 4.36 µM (inactive) | GI50 (UACC-62): 1.14 µM (inactive)
